# Laboratory results reported in patent US20050170004A1, “Nanoparticles for drug delivery” (priority 2003, published 2005).
# Experiments:
# spleen cells of mice = assay: Immunologic activity ex-vivo in mice: cytokine secretion from splenocytes activated with GA RS (ELISA); conditions: mice fed daily 250 μg GA equivalent; throughout the test period
# Experimental: The ability of GA-Wax-PVP to elicit an immune response with a similar cytokine pattern as glatiramer acetate solution was tested in an ex-vivo model in mice. The study was conducted over a period of 10 days. Mice were fed daily with GA reference standard (GA RS, 250 μg), GA-Wax-PVP (amount equivalent to 250 μg GA) or Wax-PVP as negative control (similar volume and weight of particles as GA-Wax-PVP). During the study period, subsets of animals in each treatment group were sacrificed on days 3, 6 and 10. Spleens were excised and primary cell cultures were prepared. The effect of the treatment was tested by in-vitro activation of splenocytes with GA RS. The response of the cells to the challenge is a measure of previous exposure to GA. Comparing the immune response of the mice fed GA-Wax-PVP to those fed GA RS gives a measure of the relative exposure to GA that each treatment provided. T-cell response was monitored by detection of cytokines secreted from activated cells by ELISA analysis. The levels of IL-2, TGF-β, IL-4, IL-5, IL-10 and IFN-γ were examined.
# pancreatin = assay: Protection from enzymatic degradation by pancreatin; format: in vitro ADME; conditions: pancreatin:GA 1:10, 37° C., phosphate buffer pH 6.8
# Experimental: The enzymatic degradation of free GA in solution versus GA in the nano suspension (˜50% bound to the nanoparticles) and versus GA bound to the nanoparticles (˜100% bound) was studied using pancreatin. The GA bound to the nanoparticles was prepared by collecting fractions from the void volume of the Sephadex column as described in Example 1 and pooling the samples. Pancreatin is a mixture of pancreatic proteases consisting of trypsin and chymotrypsins.
# Pancreatin 3.5 mg was dissolved in 10 ml of 0.05M phosphate buffer pH=6.8. Free GA, GA in nano suspension, or fully bound GA, 35 mg as GA, was dissolved or suspended in 10 ml of 0.05M phosphate buffer pH=6.8. 1 ml of the pancreatin solution and 1 ml of the GA solution or suspension were mixed (the ratio of pancreatin to GA was fixed at 1:10) and held at 37° C. At fixed time points the enzymatic reaction was stopped by adding 0.4 ml of 1N HCl. The residual GA content of the mixture was determined by the HPLC method described in Example 1.
# multiple sclerosis = conditions: cited from earlier work
# [1] = test system: EAE in the Lewis rat model; assay: Efficacy in rat experimental autoimmune encephalomyelitis (EAE); format: in vivo; conditions: for % of inhibition vs. DDW: inhibition of group mean score
# Source text: In this experiment the goal was to reduce experimental autoimmune encephalomyelitis (EAE) induced clinical signs in the Lewis rat model. Lewis (LEW) rats are highly susceptible to EAE induced with guinea pig spinal cord homogenate (GPSCH) emulsified in modified complete Freund's adjuvant (CFA). […] Decreased signs of EAE in rats with test materials administered orally during the study is considered a protective effect set forth by the experimental design.
# The animal were induced with the disease by subcutaneous injection of GPSCH emulsion into both hind paws on day 1.
# Initiation of scoring of rats for EAE clinical signs started on day 9. The treatment groups were blinded to the scorer. The treatments or control treatments were started on day 1 and administered daily to day 22. Treatments were administered by oral gavage at a dose and frequency described in Table 2.
# There were ten rats in each group.
# The animals were accessed daily for EAE clinical signs as described in Table 3.
# The number of sick animals in each group were assessed. The day of onset of the symptoms, the duration of days of the symptoms and the number of animals dying were noted and the percentages calculated.
# The maximal scores of each of the animals in each group were summed. The mean maximal score of the group was calculated as follows: […]
# Σ Maximal score of each rat/number of rats in the group.
# The scores of each of the animals in the group were summed and the mean score per day was calculated. The group mean score was calculated as follows: • Σ Total score of each rat per day/number of rats in the group. Results
# [2] = daily oral gavage day 1-22, 2.5 mg GA/ml, 5 ml/kg
substance,measurement,setting,value
Glatiramer acetate [GA],"levels of all the cytokines examined (IL-2, TGF-β, IL-4, IL-5, IL-10, IFN-γ)",spleen cells of mice,similar
same,percent residual GA,pancreatin; 0 min,100.0 +/− 0.0%
same,percent residual GA,pancreatin; 1 min,75.1 +/− 3.9%
same,percent residual GA,pancreatin; 2 min,63.4 +/− 4.8%
same,percent residual GA,"pancreatin; 3 min, listed as Free GA, 3 min",56.3 +/− 4.7%
same,percent residual GA,"pancreatin; 3 min, listed as free GA",56%
same,percent residual GA,pancreatin; 6 min,47.1 +/− 4.4%
same,clinical benefits for MS patients,multiple sclerosis; 20 mg subcutaneous daily injection,extended clinical benefits
same,burden of disease lesions in magnetic resonance imaging measures,multiple sclerosis; literature review,significantly reduce
same,relapse rate of multiple sclerosis,multiple sclerosis; literature review,significantly reduce
same,Group Mean Score,[1]; EAE clinical score 0-6,0.67 ± 0.4
same,Mean Maximal Score,[1]; EAE clinical score 0-6,2.2 ± 1.1
same,Incidence %,[1]; [2],89%
same,Incidence Total N,[1]; [2],8/9
same,Mean Disease Duration,[1]; [2],3.2 ± 1.6 days
same,Mean Onset,[1]; [2],13.0 ± 2.5 days
same,Mortality %,[1]; [2],0%
same,Mortality Total N,[1]; [2],0/10
same,Incidence Total N,"[1]; daily oral gavage day 1-22, 2.5 mg GA/ml, 5 ml/kg, listed as Glatiramer acetate oral solution",eight of nine
same,Daily Mean Score,"[1]; day 9, EAE clinical score 0-6",0.0
same,Daily Mean Score,"[1]; day 10, EAE clinical score 0-6",0.0
same,Daily Mean Score,"[1]; day 11, EAE clinical score 0-6",0.2
same,Daily Mean Score,"[1]; day 12, EAE clinical score 0-6",1.3
same,Daily Mean Score,"[1]; day 13, EAE clinical score 0-6",2.0
same,Daily Mean Score,"[1]; day 14, EAE clinical score 0-6",1.8
same,Daily Mean Score,"[1]; day 15, EAE clinical score 0-6",1.2
same,Daily Mean Score,"[1]; day 16, EAE clinical score 0-6",0.1
same,Daily Mean Score,"[1]; day 17, EAE clinical score 0-6",0.0
same,Daily Mean Score,"[1]; day 18, EAE clinical score 0-6",0.0
same,AUC of daily mean score,[1]; days 9-18,6.6
same,% of inhibition vs. DDW,[1],38%
same,% of inhibition vs. DDW,[1]; listed as glatiramer acetate oral solution,38%
same,effect on disease severity of EAE (conclusion),"[1]; oral administration, in words",inhibit the disease severity of EAE in rats
